Test results as given in patent US4791215A, “Derivatives of glutamic acid and aspartic acid” (priority 1984, dated 1988).

Legend:
morphine analgesia = test: Increase in analgesia of morphine, Tail Flick Test (Experiment 1); format: in vivo, rats; conditions: for percentage variation of latency of pain sensation / M (10-90) ± SE, mean percentage variation of latency: compound 10 mg/kg i.p. + morphine 2 mg/kg; for M (10-90) ± SE, mean percentage variation of latency: mean 10-90 min; for Power ratio with respect to morphine alone: rat, in vivo
Protocol: Experiment No: 1 Increase in analgesia of analgesic-narcotic drugs in rats by the Tail Flick Test
The method is that described by Harris et al. (J. Pharmacol. Exp. Ther. 143 (1964) 141-148).
Male rats are used having a weight of about 150-200 g which have not fasted. A point on the tail is chosen and irradiated by a heat source (75° C.) and the time (in seconds) for which the animal remains without moving its tail is measured.
A maximum period of time of 8 seconds under the heat source is chosen, after which the animal is, in any case, removed to avoid tissue damage. The measurement is effected before (controls) and after treatment with the drugs.
The percentage variation is calculated for each individual animal by the following formula: [formula] The measurements were carried out 10, 20, 30, 45, 60 and 90 minutes after treatment with the analgesics.

[1] = tested on: CCK-8 induced contraction of guinea pig gall bladder; test: Anti-CCK activity on gall bladder strips in vitro; conditions: CCK-8 10 ng/ml
Protocol: ANTI-CCK ACTIVITY ON GUINEA PIG GALL BALDDERS IN VITRO
A longitudinal strip of guinea pig gall bladder was placed in a bath of isolated members in the presence of Krebs at a temperature of 32° C. with continuous oxygenation with an oxygen-CO2 mixture (95-5V/V).
The isometric contractions were detected by means of a force transducer and recorded.
The gall bladder was made to contract with the use of a 10 ng/ml concentration of CCK-8; the antagonistic activity of the compounds of the invention on the contracting effect of the CCK was determined with the use of different concentrations and the ED 50 value, that is the concentration in μg/ml of a compound which could antagonise 50% of the contracting effect of the CCK, was determined.

[2] = tested on: activity of analgesic drugs; test: Hot-plate test, potentiation of analgesic drugs (Experiment 2); format: in vivo, rats
Protocol: Experiment No. 2: Hot-plate test
The method is that described by Eddy et al. (J. Pharmac. Exp. Ther. 107, 385 (1953)).
Groups of five male rats having a weight of about 150 g, and which have not fasted, are used.
The animals are placed on a metal plate on the bottom of a transparent cylinder, which is heated to 55°±1° C. by an azeotropic boiling mixture (acetone-ethyl formate 1:1).
The reaction time is defined as the interval which passes between the moment at which the animal is placed on the hot-plate and the moment at which it either licks its feet or tries to jump out of the cylinder. The control reaction time is measured 10 and 5 minutes before administration of the drugs and 10, 20, 30, 45, 60 and 90 minutes afterwards. The animals are left on the plate for a maximum period of 30 seconds.
The response to the administration of the product is considered positive if at least a doubling of the normal reaction time is seen. The results obtained are given in Tables 2a and 2b which record the groups treated, the doses administered and the stay times on the plate expressed as the number of positive responses over the number treated.

Question: Which “percentage variation of latency of pain sensation” value (morphine analgesia; 10') does the source give for `CCCN(CCC)C(=O)C(CCC(=O)O)NC(=O)c1ccccc1Cl` (stereo not shown) [Compound C-1] here?
Answer: The value was 65.3 ± 18.0%.

Question: And the “percentage variation of latency of pain sensation” value (morphine analgesia; 20')?
Answer: Its value is 67.2%.

Question: What about the “percentage variation of latency of pain sensation” value (morphine analgesia; 30') of the same molecule?
Answer: The value was 66.3 ± 14.0%.

Question: And the “percentage variation of latency of pain sensation” value (morphine analgesia; 45')?
Answer: Its value is 82.7 ± 11.0%.

Question: And the “percentage variation of latency of pain sensation” value (morphine analgesia; 60')?
Answer: The value was 68.8 ± 17.0%.

Question: And the “percentage variation of latency of pain sensation” value (morphine analgesia; 90')?
Answer: The value was 59.3 ± 25.0%.

Question: What about the “M (10-90) ± SE, mean percentage variation of latency” value (morphine analgesia) of the same molecule?
Answer: Its value is 68.2%.

Question: What about the “Power ratio with respect to morphine alone” value (morphine analgesia) of the same molecule?
Answer: Its value is 2.29.

Question: And the “ED50 (concentration antagonising 50% of contracting effect of CCK-8)” value [1]?
Answer: Its value is greater than 200 µg/mL.

Question: For `CCCN(CCC)C(=O)C(CCC(=O)O)NC(=O)c1cccc(Cl)c1` (stereo not shown) [Compound C-2], which “percentage variation of latency of pain sensation” value (morphine analgesia; 10') is on record?
Answer: The value was 27.8 ± 13.0%.

Question: And the “percentage variation of latency of pain sensation” value (morphine analgesia; 20')?
Answer: Its value is 43.8 ± 25.0%.

Question: What about the “percentage variation of latency of pain sensation” value (morphine analgesia; 30') of the same molecule?
Answer: The value was 67.5 ± 20.0%.

Question: What about the “percentage variation of latency of pain sensation” value (morphine analgesia; 45') of the same molecule?
Answer: Its value is 64.2%.

Question: What about the “percentage variation of latency of pain sensation” value (morphine analgesia; 60') of the same molecule?
Answer: The value was 74.4 ± 16.0%.

Question: What about the “percentage variation of latency of pain sensation” value (morphine analgesia; 90') of the same molecule?
Answer: Its value is 57.3 ± 19.0%.

Question: What about the “M (10-90) ± SE, mean percentage variation of latency” value (morphine analgesia) of the same molecule?
Answer: Its value is 55.8 ± 17.0%.

Question: And the “Power ratio with respect to morphine alone” value (morphine analgesia)?
Answer: The value was 1.87.

Question: And the “ED50 (concentration antagonising 50% of contracting effect of CCK-8)” value [1]?
Answer: The value was greater than 200 µg/mL.

Question: What does the source list for `CCCN(CCC)C(=O)C(CCC(=O)O)NC(=O)c1ccc(Cl)cc1` (stereo not shown) [Compound C-3]?
Answer: percentage variation of latency of pain sensation (morphine analgesia; 10'): 44.4%; percentage variation of latency of pain sensation (morphine analgesia; 20'): 83.7 ± 16.3%; percentage variation of latency of pain sensation (morphine analgesia; 30'): 77.8 ± 17.1%; percentage variation of latency of pain sensation (morphine analgesia; 45'): 46.4 ± 24.5%; percentage variation of latency of pain sensation (morphine analgesia; 60'): 73.6 ± 17.7%; percentage variation of latency of pain sensation (morphine analgesia; 90'): 45.8 ± 22.8%; M (10-90) ± SE, mean percentage variation of latency (morphine analgesia): 61.9 ± 18.2%; Power ratio with respect to morphine alone (morphine analgesia): 2.10; ED50 (concentration antagonising 50% of contracting effect of CCK-8) [1]: 34.4 µg/mL

Question: `CCC(=O)C(CC(C)N(C)C)(c1ccccc1)c1ccccc1` (stereo not shown) [Methadone, reference compound] was tested. Which TOTAL positives ([2]; methadone 1 mg/kg i.p. alone) did it give?
Answer: Its TOTAL positives is 8 X/30.

Question: And the “positive responses over number treated” value ([2]; methadone 1 mg/kg i.p. alone, 10')?
Answer: The value was 1/5.

Question: And the “positive responses over number treated” value ([2]; methadone 1 mg/kg i.p. alone, 20')?
Answer: The value was 2/5.

Question: What about the “positive responses over number treated” value ([2]; methadone 1 mg/kg i.p. alone, 30') of the same molecule?
Answer: The value was 1/5.

Question: What about the “positive responses over number treated” value ([2]; methadone 1 mg/kg i.p. alone, 45') of the same molecule?
Answer: The value was 2/5.

Question: And the “positive responses over number treated” value ([2]; methadone 1 mg/kg i.p. alone, 60')?
Answer: Its value is 1/5.

Question: And the “positive responses over number treated” value ([2]; methadone 1 mg/kg i.p. alone, 90')?
Answer: The value was 1/5.

Question: For `CCCCC1C(=O)N(c2ccccc2)N(c2ccc(O)cc2)C1=O` (stereo not shown) [Oxyphenylbutazone, reference compound], which TOTAL positives ([2]; oxyphenylbutazone 50 mg/kg i.p. alone) is on record?
Answer: Its TOTAL positives is 7 x/30.

Question: And the “positive responses over number treated” value ([2]; oxyphenylbutazone 50 mg/kg i.p. alone, 10')?
Answer: Its value is 2/5.

Question: And the “positive responses over number treated” value ([2]; oxyphenylbutazone 50 mg/kg i.p. alone, 20')?
Answer: Its value is 1/5.

Question: And the “positive responses over number treated” value ([2]; oxyphenylbutazone 50 mg/kg i.p. alone, 30')?
Answer: Its value is 2/5.

Question: And the “positive responses over number treated” value ([2]; oxyphenylbutazone 50 mg/kg i.p. alone, 45')?
Answer: The value was 2/5.

Question: What about the “positive responses over number treated” value ([2]; oxyphenylbutazone 50 mg/kg i.p. alone, 60') of the same molecule?
Answer: The value was 0/5.

Question: What about the “positive responses over number treated” value ([2]; oxyphenylbutazone 50 mg/kg i.p. alone, 90') of the same molecule?
Answer: The value was 0/5.

Question: Propoxyphene [reference compound] was tested. Which TOTAL positives ([2]; propoxyphene 10 mg/kg i.p. alone) did it give?
Answer: Its TOTAL positives is 8 X/30.

Question: And the “positive responses over number treated” value ([2]; propoxyphene 10 mg/kg i.p. alone, 10')?
Answer: Its value is 1/5.

Question: And the “positive responses over number treated” value ([2]; propoxyphene 10 mg/kg i.p. alone, 20')?
Answer: Its value is 2/5.

Question: And the “positive responses over number treated” value ([2]; propoxyphene 10 mg/kg i.p. alone, 30')?
Answer: The value was 2/5.

Question: And the “positive responses over number treated” value ([2]; propoxyphene 10 mg/kg i.p. alone, 45')?
Answer: The value was 2/5.

Question: What about the “positive responses over number treated” value ([2]; propoxyphene 10 mg/kg i.p. alone, 60') of the same molecule?
Answer: The value was 1/5.

Question: And the “positive responses over number treated” value ([2]; propoxyphene 10 mg/kg i.p. alone, 90')?
Answer: Its value is 0/5.

Question: What about the TOTAL positives ([2]; propoxyphene 15 mg/kg i.p. alone) of the same molecule?
Answer: The TOTAL positives was 12 x/30.

Question: What about the “positive responses over number treated” value ([2]; propoxyphene 15 mg/kg i.p. alone, 10') of the same molecule?
Answer: The value was 2/5.

Question: What about the “positive responses over number treated” value ([2]; propoxyphene 15 mg/kg i.p. alone, 20') of the same molecule?
Answer: The value was 2/5.

Question: And the “positive responses over number treated” value ([2]; propoxyphene 15 mg/kg i.p. alone, 30')?
Answer: Its value is 3/5.

Question: And the “positive responses over number treated” value ([2]; propoxyphene 15 mg/kg i.p. alone, 45')?
Answer: The value was 3/5.

Question: What about the “positive responses over number treated” value ([2]; propoxyphene 15 mg/kg i.p. alone, 60') of the same molecule?
Answer: Its value is 1/5.

Question: And the “positive responses over number treated” value ([2]; propoxyphene 15 mg/kg i.p. alone, 90')?
Answer: Its value is 3/5.
